# From publication PMC5318461 (Frontiers in Microbiology, 2017)
# Read-outs that look alike come from different tables or passages of the source. Numbered stars: 1 amine (or outer) side, 2 acyl side, 3 side chain; on linkers, the order of the positions; unused ones are H or OH. Bridge positions count the residues as written; N and C are the ends. Square brackets hold non-standard residues; d marks the D form. Peptide text beside a SMILES is read from it. I, II: the chains in the order shown. Actinocin(9to1) = Cc1c2oc3c(C)ccc(C(=O)[*:1])c3nc-2c(C(=O)[*:2])c(N)c1=O; NMeV = CN[C@H](C(=O)O)C(C)C; Sar = CNCC(=O)O
# How the values were obtained:
# [1] = tested on: Leishmania amazonensis promastigote; experiment: In vitro activity against L. amazonensis promastigotes (growth inhibition by cell counting; drugs alone and in checkerboard combination); assay type: cell-based; details: isolated drug; for IC50: 72 h, 25°C, ± SD; for IC90: promastigotes
# Experimental: Leishmania amazonensis MHOM/BR/75/Josefa strain was isolated from a human case of cutaneous leishmaniasis by Dr. Cesar A. Cuba, at University of Brasilia, Brazil ([Saraiva et al., 1983]; [Cuba et al., 1985]). These promastigote parasites were maintained in Warren’s medium, consisting of brain heart infusion (Gibco®), hemin (Sigma–Aldrich®), and folic acid (Sigma–Aldrich®), pH 7.2, supplemented with 10% of fetal calf serum (FCS – Invitrogen®) and incubated at 25°C.
# The same procedure was carried out with axenic amastigote forms, using 12-wells microplate. After incubation during 72 h, at 25 and 32°C for promastigote and axenic amastigote forms, respectively, viable cells were counted with hemocytometer supporting.
# Briefly, promastigotes, axenic and intracellular amastigotes were prepared even as previously described (see the section In vitro Activity against L. amazonensis) as well the macrophages and erythrocytes, according to the section Cytotoxicity and Hemolysis Assays. […] Thus, the compounds were singly evaluated in the first row and column and the checkerboard model supported the drug combination in the other wells. Next, the parasites were added and, after incubation, as described above, it was possible to determine the IC50 for the association. Finding the behavior of each association, the CI was calculated from the formula:
# CI=(IC50 compound A associated/IC50 compound A alone)+(IC50 compound B associated/IC50 compound B alone)
# CI values lower, equal and greater than one indicate, respectively, synergistic, additive and antagonistic profile of association tested, according established by [Chou and Talalay (1984)] and [Chou (2010)].
# (§1) Scanning electron microscopy was carried out to analyze the morphologic alterations on cell surface topography. […] After incubation for 72 h, at 25°C, the samples were fixed in 2.5% glutaraldehyde in 0.1 M sodium cacodylate buffer (Electron Microscopy Sciences – EMS®) for 24 h. It used poly-L-lysine (Electron Microscopy Sciences – EMS®) to promote the fixed parasites adhesion over coverslips, which were dehydrated with increasing concentration of ethanol (30, 40, 50, 60, 70, 80, 90, 95, 100% – Sigma–Aldrich®). The samples were critical-point-dried (Baltec SCD-030) in CO2 to remove any water trace, placed on appropriate stub to coat with gold alloy. The micrographs were obtained by analysis in Shimadzu SS-550 scanning electron microscope (SEM).
# [2] = tested on: Leishmania amazonensis axenic amastigote; experiment: In vitro activity against L. amazonensis axenic amastigotes (growth inhibition by cell counting; alone and checkerboard combination); assay type: cell-based; details: isolated drug, 72 h, 32°C, ± SD
# Experimental: Axenic amastigote forms were obtained from L. amazonensis promastigotes. For this, promastigote forms in phase log of growth were cultivated in Warren’s medium, pH 7.2, supplemented with 20% FCS and incubated at 25°C, during 48 h. Next, the parasites were maintained at 30°C, for 24 h, and at 32°C until differentiation in amastigote forms. Axenic amastigotes were maintained in Schneider insect’s medium (Sigma–Aldrich®), pH 4.6, supplemented with 20% of FCS, at 32°C ([Ueda-Nakamura et al., 2001]).
# [3] = tested on: L. amazonensis intracellular amastigotes; experiment: Activity against L. amazonensis intracellular amastigotes in peritoneal macrophages (survival index; alone and checkerboard combination); assay type: cell-based, Leishmania amazonensis; details: isolated drug, 48 h, ± SD, read-out: IC50 Intracellular amastigote
# Experimental: Furthermore, the activity of these drugs against L. amazonensis intracellular amastigotes was also evaluated. For this, intraperitoneal macrophages were harvested from the males BALB/c mice, by injection of cold phosphate-saline buffer (PBS) plus FCS 3% inner the peritoneal cavity. After centrifugation, a suspension of 5 × 10^5 macrophages in RPMI was placed on glass coverslips in 24-wells microplate and incubated during 2 h, at 37°C and 5% CO2 atmosphere, for cellular adhesion. After this period, the wells were washed and the macrophages were infected with L. amazonensis promastigotes in stationary phase (5–6 days) at a ratio of 7 parasites/1 mammalian cell, during 4 h, at 34°C and 5% CO2 tension and then, the tested compounds were added during 48 h ([Kaplum et al., 2016]). At the end of this period, the glass coverslips were subject to fixation with methanol during 10 min and stained with 10% Giemsa stain (GIBCO KaryoMax® Giemsa), for 40 min. Then, a total of 200 macrophages were counted under light microscope, distinguishing infected cells and amastigote parasites. Thereby, the survival index (SI = infected cells percentage × amastigote average per infected macrophage) was calculated considering 100% of survival for the untreated negative control (NC). It was subsequently possible to carry out the comparison with samples treated for IC50 calculation purposes.
# [4] = tested on: J774.A1 macrophages; experiment: Cytotoxicity on J774.A1 macrophages (MTT; alone and checkerboard combination); assay type: cell-based, Murine; details: isolated drug, 48 h, ± SD, read-out: CC50 J774.A1 Macrophage
# Excerpt: (§2) As positive control, it used Triton X (Synth®) surfactant. […] (2010)].
# [5] = tested on: peritoneal macrophages infected with L. amazonensis; experiment: Nitric oxide measurement (DAF-FM DA) on infected macrophages; assay type: cell-based, BALB/c mice; details: IC50 and IC90, 48 h, 34°C
# Experimental: Furthermore, the activity of these drugs against L. amazonensis intracellular amastigotes was also evaluated. For this, intraperitoneal macrophages were harvested from the males BALB/c mice, by injection of cold phosphate-saline buffer (PBS) plus FCS 3% inner the peritoneal cavity. After centrifugation, a suspension of 5 × 10^5 macrophages in RPMI was placed on glass coverslips in 24-wells microplate and incubated during 2 h, at 37°C and 5% CO2 atmosphere, for cellular adhesion. After this period, the wells were washed and the macrophages were infected with L. amazonensis promastigotes in stationary phase (5–6 days) at a ratio of 7 parasites/1 mammalian cell, during 4 h, at 34°C and 5% CO2 tension and then, the tested compounds were added during 48 h ([Kaplum et al., 2016]). […] Then, a total of 200 macrophages were counted under light microscope, distinguishing infected cells and amastigote parasites. Thereby, the survival index (SI = infected cells percentage × amastigote average per infected macrophage) was calculated considering 100% of survival for the untreated negative control (NC). […]
# Promastigote forms and infected macrophages were incubated at 25°C for 72 h and 34°C for 48 h, respectively. […] Fluorescence was measured on fluorometer Perkin-Elmer Victor X3, at λex = 495 nm and λem = 515 nm.
# [6] = tested on: non-infected macrophages; experiment: Nitric oxide measurement (DAF-FM DA) on non-infected macrophages; assay type: cell-based; details: IC50 and IC90
# [7] = tested on: L. amazonensis promastigote; experiment: Detection of lipid droplets using Nile Red dye (fluorometry); assay type: cell-based, Leishmania amazonensis
# Experimental: Parasites were prepared and standardize in accordance to item 2.8.1. Next, 5 μL of Nile Red (Sigma–Aldrich®) 1 mg/mL methanol were added to treated parasites and incubated during 30 min, at dark and room temperature. Fluorescence was measured on Perkin-Elmer Victor X3 fluorometer, at λex = 485 nm e λem = 535 ([Greenspan et al., 1985]). Nile Red is a phenoxazone dye that fluoresces intensely at yellow–gold color in the presence of triacylglycerols, cholesterol, or cholesterol esters, considered neutral lipids ([Fowler and Greenspan, 1985]).
# [8] = tested on: L. amazonensis promastigote; experiment: Transmission electron microscopy of treated promastigotes; assay type: cell-based, Leishmania amazonensis; details: IC50 and IC90, 72 h, 25°C
# Experimental: In order to evaluate the ultrastructure changes in the treated parasites, promastigote forms were treated and fixed according described above. These samples were post-fixed with 1% OsO4 (Electron Microscopy Sciences – EMS®) and 0.8% potassium ferrocyanide (Electron Microscopy Sciences – EMS®), in the dark, during 60 min, at room temperature. This procedure increases the contrast to link with lipids. The samples were washed in 0.1 M sodium cacodylate buffer and dehydrated in increased concentration of acetone (50, 70, 80, 90, 95, 100% – Sigma–Aldrich®). All acetone content was replaced by cell diffusion for EPON^TM epoxy resin, gradually, and after 48 h, at 60°C, the resin was polymerized. Nanometric cuts (60–70 nm) were obtained on ultramicrotome (Power Tome X RMC Products), contrasted with 5% uranyl acetate (Electron Microscopy Sciences – EMS®) and 2% lead citrate (Electron Microscopy Sciences – EMS®). Finally, the samples were analyzed by transmission electron microscope (TEM) JEOL – JEM 1400.
# [9] = tested on: L. amazonensis promastigote; parameters: method as in Britta et al. (2014); details: ref Britta et al. (2014); cited from earlier work
# [10] = tested on: L. amazonensis promastigote; parameters: method as in Britta et al. (2014); details: ref Britta et al. (2014); cited from earlier work; remark: listed apart in the source
# [11] = tested on: erythrocytes; experiment: Hemolysis assay (hemoglobin release; alone and checkerboard combination); details: read-out: CC50 Erythrocytes; isolated drug; defibrinated sheep blood, 6% erythrocyte suspension, 2 h, 37°C; ± SD
# Experimental: (§3) Assessing the possibility of drug-induced hemolysis, the hemolytic activity was evaluated in vitro from defibrinated sheep blood, commercially obtained (Laborclin; lot n° 51109038). Erythrocyte suspension at 6% was prepared by centrifugation in 2,000 × g, for 10 min and placed in 96-wells with the different concentrations of each compound. As positive control, it used Triton X (Synth®) surfactant. After 2 h at 37°C, all samples were centrifuged for 3 min, and the supernatant was harvested to verify the hemoglobin release by the absorbance measured in 540 nm.
# [12] = tested on: L. amazonensis promastigote; experiment: Volume analysis of promastigote forms, flow cytometry (FSC-H); assay type: cell-based, Leishmania amazonensis; details: 24 h; miltefosine 173.32 μM; BZTS + miltefosine 13.86 μM + 37.78 μM; actinomycin D positive control
# Experimental: For these studies, the treated protozoa were incubated during 24 h, at 25°C.
# After to treat 1 × 10^7 promastigote forms with […] actinomycin D (positive control – Sigma–Aldrich®), isolated miltefosine and BZTS with miltefosine, the samples were washed two times with PBS 0.01 M and incubated. Cell volume was measured on BD FACSCalibur flow cytometer and 10,000 events were analyzed by CellQuest Pro software.
# [13] = Cytotoxicity on J774.A1 macrophages (MTT; alone and checkerboard combination); assay type: cell-based, Murine; details: mouse, J774.A1 macrophages, pH 7.6, isolated drug, ± SD, read-out: CC50 J774.A1 Macrophage
# Excerpt: as §2
# [14] = Hemolysis assay (hemoglobin release; alone and checkerboard combination); details: sheep, 6% erythrocyte suspension from defibrinated sheep blood
# Experimental: as §3
# [15] = tested on: L. amazonensis promastigote; experiment: Phosphatidylserine exposure (Annexin-V-FITC / PI), flow cytometry; assay type: cell-based, Leishmania amazonensis; details: 24 h; miltefosine 173.32 μM; BZTS 13.86 μM + miltefosine 37.78 μM; CCCP 100 μM
# Experimental: For these studies, the treated protozoa were incubated during 24 h, at 25°C. […] At the end of 24 h, the samples were washed in 0.01 M PBS and resuspended in 100 μL of binding buffer (140 mM NaCl; 5 mM CaCl2; 10 mM HEPES-Na; pH 7.4), followed by the addition of 5 μL of the Annexin-V-FITC conjugated (Molecular Probes®). After 15 min of incubation, 400 μL of binding buffer and 50 μL of PI were added. […] Data acquisition (10,000 events) and analysis were carried out on flow cytometer BD FACSCalibur, equipped with CellQuest Pro software. Necrosis processes were identified by PI fluorescence in the cells while apoptotic cells were labeled with Annexin-V-FITC, regardless of the PI behavior.
# [16] = tested on: L. amazonensis promastigote; experiment: Cell membrane integrity by propidium iodide, flow cytometry; assay type: cell-based, Leishmania amazonensis; details: 24 h, 25°C; miltefosine 173.32 μM; BZTS + miltefosine 13.86 μM + 37.78 μM; digitonin 40 μM
# Experimental: For these studies, the treated protozoa were incubated during 24 h, at 25°C. L. amazonensis promastigote cells were prepared according item 2.7. After incubation, the samples were washed in PBS 0.01 M and incubated with 50 μL of propidium iodide (PI – Sigma–Aldrich®) 2 mg/mL at 25°C, for 5 min. Membrane rupture allows the entrance of PI and its binding to cell DNA. Cell membrane integrity was measured according PI fluorescence, on BD FACSCalibur flow cytometer, in which 10,000 events were evaluated by CellQuest Pro software. Digitonin saponin 40 μM (Sigma–Aldrich®) was used as positive control and the fluorescence measurement were compared with NC fluorescence.
# [17] = tested on: L. amazonensis promastigote; experiment: Mitochondrial transmembrane potential (rhodamine 123), flow cytometry; assay type: cell-based, Leishmania amazonensis; details: 24 h; 2 × IC90
# Experimental: For these studies, the treated protozoa were incubated during 24 h, at 25°C. Parasites were prepared according 2.7.1 item, including positive control. […] At the same way described above, 10,000 events were evaluated on flow cytometer BD FACSCalibur and the data were analyzed by CellQuest Pro software.
# [18] = tested on: L. amazonensis promastigote; experiment: Scanning electron microscopy of treated promastigotes; assay type: cell-based, Leishmania amazonensis; details: IC50 and IC90, 72 h, 25°C
# Experimental: as §1
compound,measurement,setting,value
4-nitro benzaldehyde thiosemicarbazone derived from S-(-)-limonene [BZTS],IC50,[1],4.16 ± 0.78 µM
same,IC90,[1],13.9 µM
same,IC50,[2],8.04 ± 0.37 µM
same,IC50,[3],6.99 ± 1.22 µM
same,CC50,[4],87.5 ± 9.07 µM
same,"NO production, infected macrophages",[5],only in higher concentrations
same,"NO production, non-infected macrophages",[6],induced the NO production
same,Lipid droplets (Nile Red fluorescence) vs NC,"[7]; treated at IC50, 24 h",statistical significance
same,Lipid droplets (Nile Red fluorescence) vs NC,"[7]; treated at IC90, 24 h",statistical significance
same,Ultrastructure changes by TEM,[8],"mitochondrion alterations, like swelling and concentric membranes inner mitochondria"
same,cell volume after BZTS treatment,[9],cell volume decrease
same,Annexin-V-FITC after BZTS treatment,[10],positive results
same,CC50,[11],> 500 µM
"Cc1c2oc3c(C)ccc(C(=O)N[C@@H]4C(=O)N[C@H](C(C)C)C(=O)N5CCC[C@H]5C(=O)N(C)CC(=O)N(C)[C@@H](C(C)C)C(=O)O[C@@H]4C)c3nc-2c(C(=O)N[C@@H]2C(=O)N[C@H](C(C)C)C(=O)N3CCC[C@H]3C(=O)N(C)CC(=O)N(C)[C@@H](C(C)C)C(=O)O[C@@H]2C)c(N)c1=O [Actinomycin D] (I: T[dV]P[Sar][NMeV] / II: T[dV]P[Sar][NMeV]; ester I:1-I:C, II:1-II:C; linker I:N-II:N via Actinocin(9to1))",cells with volume reduction compared to untreated parasites,[12],51.95%
C[C@@H]1[C@H](O)[C@@H](C)/C=C/C=C/C=C/C=C/C=C/C=C/C=C/[C@H](O[C@@H]2O[C@H](C)[C@@H](O)[C@H](N)[C@@H]2O)C[C@@H]2O[C@](O)(C[C@@H](O)C[C@@H](O)[C@H](O)CC[C@@H](O)C[C@@H](O)CC(=O)O[C@H]1C)C[C@H](O)[C@H]2C(=O)O [Amphotericin B],IC50,[2]; Leishmania amazonensis,0.43 ± 0.19 µM
same,CC50 at 48 h,[13],3.74 ± 0.59 µM
same,CC50 at 2 h,[14],51.8 ± 4.34 µM
"N#CC(C#N)=NNc1cccc(Cl)c1 [CCCP, carbonyl cyanide 3-chlorophenylhydrazone]","cells in late apoptotic process, Annexin-V-FITC and PI fluorescence (upper right quadrant)",[15],39.98%
same,cells with only Annexin-V-FITC label (lower right quadrant),[15],5.25%
"CCCCCCCCCCCCCCCCOP(=O)([O-])OCC[N+](C)(C)C [Miltefosine, hexadecyl-phosphocholine]",IC50,[1]; Leishmania amazonensis,20.8 ± 0.25 µM
same,IC90,[1]; Leishmania amazonensis,86.7 µM
same,IC50,[2]; Leishmania amazonensis,0.79 ± 0.48 µM
same,IC50,"[3]; Leishmania amazonensis, Peritoneal macrophage",1.82 ± 0.2 µM
same,CC50 at 48 h,[13],55.1 ± 1.97 µM
same,PI fluorescence (cells that lost plasma membrane integrity),[16],81.18%
same,cells with volume reduction compared to untreated parasites,[12],10.45%
same,Rh 123 fluorescence intensity (in words),[17],strong decrease
same,"NO production, infected macrophages",[5],NO production increased from low concentration
same,"NO production, non-infected macrophages",[6],induced the NO production
same,Lipid droplets (Nile Red fluorescence) vs NC,"[7]; treated at IC90, 24 h",statistical significance
same,Morphologic alterations by SEM,[18],changes on surface cell and reduction of the flagellum length
same,Ultrastructure changes by TEM,[8],Disruption of cytoplasmic membrane
same,CC50 at 2 h,[14],21.4 ± 0.75 µM
